Data taken from the supplement of paper PMC10307832.

Columns and labels:
Assay in all cases: relative viability (nuclei count vs DMSO), 5 days (fraction); higher = more cells survive
[1] = compound: CCC1=CN=CN=C1N2CCN(CC2)CC3=NC4=C(N3)C=C(C=C4)C(F)(F)F + CC(=O)c1c(C)c2cnc(Nc3ccc(N4CCNCC4)cn3)nc2n(C2CCCC2)c1=O [Palbociclib] (partner 0.5 µM)
Summary of the method: (§1)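 For relative viability, nuclei counts in treated wells were divided by those in vehicle wells. Lung cancer cell lines had been pin-tool dosed in 1536-well plates the day after seeding and cultured for 5 days, then fixed and stained in one step (final 0.05% Triton X-100, 1% formaldehyde, 1 ug/ml Hoechst) and imaged at 4×. Doses were one drug alone or a fixed anchor-drug dose plus five library-drug doses (not always all listed) in √10 steps, and values are duplicate-plate medians.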

[2] = compound: CCn1c(-c2nonc2N)nc2cnc(Oc3cccc(NC(=O)c4ccc(OCCN5CCOCC5)cc4)c3)cc21 + N=C(N)NC(=N)NCCc1ccccc1 [Phenformin] (partner 250 µM)
Summary of the method: as §1

[3] = compound: CCn1c(-c2nonc2N)nc2cnc(Oc3cccc(NC(=O)c4ccc(OCCN5CCOCC5)cc4)c3)cc21 + O=C(c1cc(Cc2n[nH]c(=O)c3ccccc23)ccc1F)N1CCN(C(=O)C2CC2)CC1 [Olaparib] (partner 8 µM)
Summary of the method: as §1

Mirin + Phenformin = compound: N=C1NC(=O)/C(=C/c2ccc(O)cc2)S1 [Mirin] + N=C(N)NC(=N)NCCc1ccccc1 [Phenformin] (partner 250 µM)
Summary of the method: as §1

| Cell Line | relative viability ([1]; first compound 0.04 µM) | relative viability ([1]; first compound 0.1265 µM) | relative viability ([1]; first compound 0.4 µM) | relative viability ([1]; first compound 1.265 µM) | relative viability ([1]; first compound 4 µM) | relative viability ([2]; first compound 0.04 µM) | relative viability ([2]; first compound 0.1265 µM) | relative viability ([2]; first compound 0.4 µM) | relative viability ([2]; first compound 1.265 µM) | relative viability ([2]; first compound 4 µM) | relative viability ([3]; first compound 0.04 µM) | relative viability ([3]; first compound 0.1265 µM) | relative viability ([3]; first compound 0.4 µM) | relative viability ([3]; first compound 1.265 µM) | relative viability ([3]; first compound 4 µM) | relative viability (Mirin + Phenformin; first compound 0.25 µM) | relative viability (Mirin + Phenformin; first compound 2.5 µM) | relative viability (Mirin + Phenformin; first compound 7.906 µM) | relative viability (Mirin + Phenformin; first compound 25 µM) | relative viability (Mirin + Phenformin; first compound 0.7906 µM) |
| --- | --- | --- | --- | --- | --- | --- | --- | --- | --- | --- | --- | --- | --- | --- | --- | --- | --- | --- | --- | --- |
| NCI-H1993 | 0.661 | 0.586 | 0.622 | 0.586 | 0.654 | 0.66 | 0.562 | 0.546 | 0.565 | 0.508 | 1.06 | 1 | 1.06 | 1.13 | 0.849 | 0.459 | 0.517 | 0.586 | 0.623 |  |
| NCI-H2347 | 0.386 | 0.396 | 0.424 | 0.368 | 0.422 | 0.521 | 0.784 | 0.465 | 0.312 | 0.403 | 0.549 | 0.587 | 0.824 | 0.383 | 0.448 | 0.334 | 0.52 | 0.453 | 0.552 | 0.328 |
| SW 900 | 0.463 | 0.497 | 0.412 |  | 0.556 | 0.71 | 0.548 | 0.506 | 0.39 | 0.548 | 0.899 | 0.924 | 1.13 | 0.826 | 0.694 | 0.732 | 0.488 | 0.597 | 0.629 | 0.654 |
| NCI-H1437 | 0.324 | 0.309 | 0.263 | 0.303 | 0.269 | 0.321 | 0.312 | 0.239 | 0.295 | 0.288 | 0.696 | 0.624 | 0.591 | 0.485 | 0.49 | 0.31 | 0.318 | 0.3 | 0.309 | 0.333 |
| SK-MES-1 | 0.322 | 0.327 | 0.278 | 0.32 | 0.318 | 0.695 | 0.655 | 0.515 | 0.271 | 0.257 | 0.772 | 0.721 | 0.656 | 0.568 | 0.483 | 0.678 | 0.693 | 0.746 | 0.771 | 0.852 |
| NCI-H3122 | 0.176 | 0.226 | 0.207 | 0.172 | 0.172 | 0.369 | 0.328 | 0.317 | 0.256 | 0.23 | 0.697 | 0.618 | 0.643 | 0.607 | 0.592 | 0.378 | 0.414 | 0.378 | 0.467 | 0.426 |
| NCI-H1299 |  |  |  |  |  |  |  |  |  |  | 0.975 | 0.958 | 0.867 | 0.712 | 0.52 |  |  |  |  |  |
| NCI-H1563 |  |  |  |  |  | 0.592 | 0.61 | 0.507 | 0.582 | 0.553 |  |  |  |  |  | 0.668 | 0.67 | 0.703 | 0.657 | 0.76 |
| Calu-6 |  |  |  |  |  |  |  |  |  |  | 0.569 | 0.528 | 0.541 | 0.381 | 0.328 |  |  |  |  |  |
| NCI-H1703 |  |  |  |  |  |  |  |  |  |  | 0.469 | 0.452 | 0.675 | 0.333 | 0.303 |  |  |  |  |  |
| EBC-1 |  |  |  |  |  |  |  |  |  |  | 0.777 | 0.716 | 0.637 | 0.492 | 0.535 |  |  |  |  |  |
| NCI-H1648 | 0.235 |  |  | 0.296 | 0.303 |  |  |  |  |  | 0.604 | 0.577 | 1.35 | 1.26 | 1.5 |  |  |  |  |  |
| A549 |  |  |  |  |  | 0.303 | 0.151 | 0.0713 | 0.0328 | 0.0406 | 0.499 | 0.343 | 0.122 | 0.0557 | 0.102 | 0.129 | 0.159 | 0.189 | 0.235 | 0.138 |
